Test results published in PMC9457259 (Proceedings of the National Academy of Sciences of the …, 2022).

Biological target: human voltage-gated proton channel hHv1 (Homo sapiens, UniProt Q96D96)
Assay: liposome proton flux assay
Type: biochemical

human voltage-gated proton channel hHv1, sequence (Q96D96 whole entry): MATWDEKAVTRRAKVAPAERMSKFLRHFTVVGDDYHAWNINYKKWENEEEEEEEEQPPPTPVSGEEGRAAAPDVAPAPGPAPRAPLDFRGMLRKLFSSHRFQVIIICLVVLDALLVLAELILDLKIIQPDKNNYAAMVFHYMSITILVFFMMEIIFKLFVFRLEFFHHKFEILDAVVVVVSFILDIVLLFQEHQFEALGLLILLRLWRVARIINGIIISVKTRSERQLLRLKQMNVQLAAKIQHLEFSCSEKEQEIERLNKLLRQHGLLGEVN

## CC(C)CCC[C@@H](C)[C@H]1CC[C@H]2[C@@H]3CC=C4C[C@@H](O)CC[C@]4(C)[C@H]3CC[C@]12C [cholesterol]
  IC50: ~ 10 % (wt/wt, to total membrane lipids)
